The values that follow come from patent US4405638A, “2-Methoxyphenyl esters of N-substituted amino acids, a process for their preparation and pharmaceutical compositions containing them” (Sigma-Tau Industrie Farmaceutiche Riunite S.p.A, priority 1981, dated 1983).

One data set deals with cough. The data set can be described thus: Antitussive activity: cough induced by citric acid aerosol in Guinea pigs. Format: in vivo. Here is the method:
This activity was tested on Guinea pigs, in which cough was induced by citric acid aerosol, in comparison with codeine. Compound (2) was administered per os and intraperiotoneally.
Antitussive activity. Cough induced in Guinea pigs

Data set [1] is described as follows: Acute toxicity, LD50 by the Weil method, intraperitoneal administration in the mouse. The conditions noted are these: in vivo, ip, N = 4 K = 4, confidential limits given. The source says: LD50 of the compounds of formula (I), evaluated by the Weil method ("Tables for convenient calculation of median effective dose (LD50 or ED50) and instructions in their use", Biometrics, 249-253, 1952), by intraperitoneal administration in the mouse.
LD50 and confidential limits, mg/kg i.p., of the
compounds of formula I. Weil method, N = 4 K = 4

For another data set, the system named is esterase. As to the kind of experiment: In vitro enzymatic hydrolysis of compound (2). Format: in vitro ADME. As for the experimental part:
"In vitro" and "in vivo" tests were carried out.

The nature of data set [2]: In vivo pharmacokinetics in the rat. The text has this: After administration of equimolecular doses of N-[2-(2-thenoylthio)propionyl]glycine and of the corresponding 2-methoxyphenyl ester (compound (2)), higher lung concentrations of N-(2-mercaptopropionyl)glycine and thiophene-2-carboxylic acid are found in the case of compound (2) administration.
In another data set the test system is bronchial tree. The data set can be described thus: Bronchosecretogogic activity: sodium fluoresceine method in the rat (Mawatari). Type of data set: in vivo. As to conditions: 500 mg/kg i.p. Here is the method:
The bronchosecretogogic activity of compound (2), i.e. 2-methoxyphenyl N-[2-(2-thenoylthio)propionyl]aminoacetate, was tested according to the method of the sodium fluoresceine in the rat, as described by Mawatari (Experimental Studies on the expectorant action of several drugs, Kagoshima Daigaku Igaku Zasshi 27, 561 (1976)), in comparison with S-carboxymethyl-cysteine (CMC) and N-(2-mercaptopropionyl)glycine (MPG).
Removal of the sodium fluoresceine from the bronchial
tree (percentage increase versus the controls).

The test system of a further data set is bronchial secretion. As to the kind of experiment: Expectorating activity: amount of bronchial secretion in rabbits (method of Perry et al.). Type of data set: in vivo, rabbit. The conditions noted are these: male rabbits, 20 to 40 mg. As for the experimental part:
The experimentation was carried out on male rabbits, weighting 2-3 kg, narcotized with ethyl urethane, according to the method described by Perry et al. (J. Pharm. Exp. Ther. 73, 65 (1941)). Each compound of formula (I) was administered to 5 rabbits in doses ranging from 20 to 40 mg, 1 hour after the incannulation. The control group (8 rabbits) was given only water. The amount of secretion was determined 1, 2 and 4 hours after the administration.
Effects of compounds of formula (I) on the bronchial secretion
Percentage variations (± standard error) of the
bronchial secretion, in comparison with the
basic values, in the following times after the […]

[3] abbreviates: equimolecular doses, versus N-[2-(2-thenoylthio)propionyl]glycine.

The structures appear in SMILES notation.

`COc1ccccc1OC(=O)CNC(=O)C(C)SC(=O)c1cccs1` (stereo not drawn) [Compound (2), 2-methoxyphenyl N-[2-(2-thenoylthio)propionyl]aminoacetate]: in the data set with cough (100 mg/kg i.p.), the “% inhibition of the cough” value was 95.8%. Besides, the “% inhibition of the cough” value in the data set with cough (500 mg/kg per os) turned out to be 82.3%. In addition, the 50% lethal dose (LD50) (as a rule, the dose expected to kill half of the subjects tested) in data set [1] came out at 1240 mg/kg. For the same compound, in the data set on esterase, the enzymatic hydrolysis products result was “enzymetically hydrolized giving N-(2-mercaptopropionyl)glycine, thiophene-2-carboxylic acid and guaiacol”; the “tissue with highest esterase activity” value was “highest esterase activity is showed by the lung”. Besides, in data set [2], the pulmonary tropism entry is on record as “high pulmonary tropism”. In addition, in data set [2] (setting [3]), the “lung concentrations of N-(2-mercaptopropionyl)glycine” value is given as “higher” and the “lung concentrations of thiophene-2-carboxylic acid” value was “higher”. The absorption entry in data set [2] (oral administration) is recorded as “mostly absorbed as such after oral administration”. Moreover, in the data set on bronchial tree, the “Removal of the sodium fluoresceine from the bronchial tree (percentage increase versus the controls)” value amounted to 123.5%; the “bronchosecretogogic activity, comparison with CMC and MPG” value is “much higher than CMC and MPG”. In addition, the “Percentage variations (± standard error) of the bronchial secretion, in comparison with the basic values” (“Percentage variations (± standard error)” for short) in the data set on bronchial secretion (1h after the administration) is listed as “+0,3 ± 0,01%”. In addition, in the data set with bronchial secretion (2h after the administration), the “Percentage variations (± standard error)” value was “+0,7 ± 0,03%”. For the same compound, the “Percentage variations (± standard error)” value in the data set on bronchial secretion (4h after the administration) was “+1,4 ± 0,05%”.

With `CC(S)C(=O)NCC(=O)O` (stereo not drawn) [MPG, N-(2-mercaptopropionyl)glycine, reference compound], the “Removal of the sodium fluoresceine from the bronchial tree (percentage increase versus the controls)” value in the data set with bronchial tree came to 21.9%.

As to `COc1ccc2c3c1O[C@H]1[C@@H](O)C=C[C@H]4[C@@H](C2)N(C)CC[C@@]341` [codeine, reference compound], the “% inhibition of the cough” value in the data set with cough (12.5 mg/kg i.p.) is 90.2%; with cough (25 mg/kg per os), 75.6%.

Take `COc1ccccc1OC(=O)C(CSCC(=O)O)NC(C)=O` (stereo not drawn) [(7), 2-methoxyphenyl ester of N-acetyl-S-carboxymethylcysteine]: in data set [1], the LD50 worked out at 1250 mg/kg. In addition, the “Percentage variations (± standard error)” value is recorded as “+0,5 ± 0,03%” with bronchial secretion (1h after the administration), “+0,7 ± 0,07%” in the data set with bronchial secretion (2h after the administration) and “+1,9 ± 0,09%” with bronchial secretion (4h after the administration).

As to `COc1ccccc1OC(=O)C(C)NC(=O)C(C)SC(=O)c1cccs1` (stereo not drawn) [(4), 2-methoxyphenyl ester of N-[2-(2-thenoylthio)propionyl]alanine], the LD50 in data set [1] amounted to 960 mg/kg. The results for the “Percentage variations (± standard error)” value in the data set with bronchial secretion (1h after the administration), with bronchial secretion (2h after the administration) and with bronchial secretion (4h after the administration) were “+1,5 ± 0,05%”, “+1,9 ± 0,08%” and “+2,5 ± 0,09%”, respectively.

Take `COc1ccccc1OC(=O)C(CSC(C)=O)NC(=O)C(C)SC(=O)c1cccs1` (stereo not drawn) [(9), 2-methoxyphenyl ester of N-[2-(2-thenoylthio)propionyl]-S-acetylcysteine]: in data set [1], the LD50 was 1230 mg/kg. Further, the “Percentage variations (± standard error)” value with bronchial secretion (1h after the administration) is listed as “+1,9 ± 0,03%”; with bronchial secretion (2h after the administration), “+1,5 ± 0,04%”; with bronchial secretion (4h after the administration) it was “+2,4 ± 0,04%”.

For `COc1ccccc1OC(=O)C(CSCC(=O)O)NC(=O)C(C)SC(=O)c1cccs1` (stereo not drawn) [(10), 2-methoxyphenyl ester of N-[2-(2-thenoylthio)propionyl]-S-carboxymehtylcysteine], the LD50 in data set [1] was determined as 1340 mg/kg. Besides, the figures for the “Percentage variations (± standard error)” value with bronchial secretion (1h after the administration), with bronchial secretion (2h after the administration) and with bronchial secretion (4h after the administration) were “+0,8 ± 0,02%”, “+1,3 ± 0,04%” and “+2,1 ± 0,03%”, respectively.

On to `COc1ccccc1OC(=O)C(CS)NC(=O)C(C)SC(=O)c1cccs1` (stereo not drawn) [(8), 2-methoxyphenyl ester of N-[2-(2-thenoylthio)propionyl]cysteine], for which the 50% lethal dose (LD50) in data set [1] came to 980 mg/kg. The “Percentage variations (± standard error)” value with bronchial secretion (1h after the administration) is “+1,8 ± 0,04%”; in the data set on bronchial secretion (2h after the administration), “+1,7 ± 0,09%”; with bronchial secretion (4h after the administration), “+2,7 ± 0,05%”.

Take `COc1ccccc1OC(=O)C(CSC(C)=O)NC(C)=O` (stereo not drawn) [(6), 2-methoxyphenyl ester of N,S-diacetylcysteine]: the LD50 in data set [1] was 1580 mg/kg. The “Percentage variations (± standard error)” value with bronchial secretion (1h after the administration) is listed as “+0,4 ± 0,05%”; in the data set on bronchial secretion (2h after the administration), “+2,1 ± 0,05%”; with bronchial secretion (4h after the administration) it was “+1,9 ± 0,04%”.

`COc1ccccc1OC(=O)C(CS)NC(C)=O` (stereo not drawn) [(5), 2-methoxyphenyl ester of N-acetylcysteine] returned an LD50 in data set [1] of 1270 mg/kg. The entries for the “Percentage variations (± standard error)” value in the data set with bronchial secretion (1h after the administration), in the data set on bronchial secretion (2h after the administration) and with bronchial secretion (4h after the administration) were “+0,9 ± 0,05%”, “+2,1 ± 0,01%” and “+3,8 ± 0,09%”, respectively.

Take `COc1ccccc1OC(=O)CNC(C)=O` [(1), 2-methoxyphenyl ester of N-acetlyglycine]: the median lethal dose (LD50) in data set [1] turned out to be 1010 mg/kg. In addition, the “Percentage variations (± standard error)” value in the data set with bronchial secretion (1h after the administration) is recorded as “+1,3 ± 0,02%”; in the data set on bronchial secretion (2h after the administration), -1,4 ± 0,03%; in the data set on bronchial secretion (4h after the administration), “+2,3 ± 0,07%”.

In data set [1], `COc1ccccc1OC(=O)C(C)NC(C)=O` (stereo not drawn) [(3), 2-methoxyphenyl ester of N-acetylalanine] came in with an LD50 of 1150 mg/kg. For the same compound, the entries for the “Percentage variations (± standard error)” value in the data set with bronchial secretion (1h after the administration), with bronchial secretion (2h after the administration) and in the data set with bronchial secretion (4h after the administration) were “+0,8 ± 0,04%”, “+1,2 ± 0,04%” and “+2,7 ± 0,08%”, respectively.

Take `N[C@@H](CSCC(=O)O)C(=O)O` [CMC, S-carboxymethyl-cysteine, reference compound]: in the data set with bronchial tree, the “Removal of the sodium fluoresceine from the bronchial tree (percentage increase versus the controls)” value amounted to 33.4%.
